# According to patent publication US9346815B2, “5-chloro-2-difluoromethoxyphenyl pyrazolopyrimidine compounds, compositions and methods of use thereof” (Genentech, Inc., priority 2014, dated 2016):
# Columns and labels:
# [1] = target: isolated recombinant JAK1 kinase domain (Homo sapiens (Human), UniProt P23458); experiment: JAK1 enzyme assay (Caliper LabChip, peptide phosphorylation); assay type: biochemical; settings: isolated recombinant JAK1 kinase domain, 25 μM ATP
# [2] = target: isolated recombinant JAK2 kinase domain (Homo sapiens (Human), UniProt O60674); experiment: JAK2 enzyme assay (Caliper LabChip, peptide phosphorylation); assay type: biochemical; settings: 25 μM ATP
# [3] = tested on: JAK1-dependent STAT6 phosphorylation downstream of IL-13 stimulation in TF-1 human erythroleukemia cells; experiment: JAK1 pathway assay in TF-1 cells (IL-13-pSTAT6, MSD); assay type: cell-based; settings: Homo sapiens, TF-1, TF-1 cells, read-out: IL13-pSTAT6 EC50_TF-1
# Procedure, shortened: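 Cells were preincubated with compounds (0.2% DMSO) for 30 min (TF-1, GM-CSF-starved overnight, serum-free OptiMEM, 300,000 cells/well) or 1 h (BEAS-2B, complete medium, 100,000 cells/well) at 37 °C.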
# Chain of isolated recombinant JAK2 kinase domain (O60674 849-1124): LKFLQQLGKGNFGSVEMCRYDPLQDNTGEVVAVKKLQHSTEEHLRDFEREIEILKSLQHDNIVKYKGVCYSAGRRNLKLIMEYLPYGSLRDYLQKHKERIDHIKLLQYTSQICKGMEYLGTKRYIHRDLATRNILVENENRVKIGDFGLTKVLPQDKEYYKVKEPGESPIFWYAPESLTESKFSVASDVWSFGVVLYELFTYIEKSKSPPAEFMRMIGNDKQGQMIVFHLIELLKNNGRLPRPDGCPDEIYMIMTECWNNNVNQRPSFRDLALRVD
# Chain of isolated recombinant JAK1 kinase domain (P23458 875-1153): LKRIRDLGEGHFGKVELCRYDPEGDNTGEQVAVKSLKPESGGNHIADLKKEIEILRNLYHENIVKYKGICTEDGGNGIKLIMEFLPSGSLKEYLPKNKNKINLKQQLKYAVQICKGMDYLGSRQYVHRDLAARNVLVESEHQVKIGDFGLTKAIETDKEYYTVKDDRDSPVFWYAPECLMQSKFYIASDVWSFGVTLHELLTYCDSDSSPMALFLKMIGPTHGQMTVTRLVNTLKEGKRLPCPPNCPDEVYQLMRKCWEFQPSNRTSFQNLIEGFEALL
Compound,Ki [1],Ki [2],EC50 [3]
"CN(Cc1ccc(Br)cc1)C1CCN(C(=O)Cn2cc(NC(=O)c3cnn4cccnc34)c(-c3cc(Cl)ccc3OC(F)F)n2)CC1 [Example 119, N-[1-[2-[4-[(4-bromophenyl)methyl-methyl-amino]-1-piperidyl]-2-oxo-ethyl]-3-[5-chloro-2-(difluoromethoxy)phenyl]pyrazol-4-yl]pyrazolo[1,5-a]pyrimidine-3-carboxamide]",1.21 nM,0.51 nM,20.8 nM
"CCNC1CCN(C(=O)Cn2cc(NC(=O)c3c(N)nn4cccnc34)c(-c3cc(Cl)ccc3OC(F)F)n2)CC1 [Example 75, 2-amino-N-[3-[5-chloro-2-(difluoromethoxy)phenyl]-1-[2-[4-(ethylamino)-1-piperidyl]-2-oxo-ethyl]pyrazol-4-yl]pyrazolo[1,5-a]pyrimidine-3-carboxamide]",0.66 nM,0.61 nM,78.7 nM
"Nc1nn2cccnc2c1C(=O)Nc1cn(C2CCN(CCCNC(=O)c3ccccc3)CC2)nc1-c1cc(Cl)ccc1OC(F)F [Example 145, 2-amino-N-[1-[1-(3-benzamidopropyl)-4-piperidyl]-3-[5-chloro-2-(difluoromethoxy)phenyl]pyrazol-4-yl]pyrazolo[1,5-a]pyrimidine-3-carboxamide]",0.57 nM,0.16 nM,14.8 nM
"O=C(Nc1cn(CC(=O)N2CCC(NCCc3ccccc3)CC2)nc1-c1cc(Cl)ccc1OC(F)F)c1cnn2cccnc12 [Example 89, N-[3-[5-chloro-2-(difluoromethoxy)phenyl]-1-[2-oxo-2-[4-(2-phenylethylamino)-1-piperidyl]ethyl]pyrazol-4-yl]pyrazolo[1,5-a]pyrimidine-3-carboxamide]",0.88 nM,1.45 nM,22.7 nM
"CCOC(=O)N1CCC(CN2C[C@@H]3CN(C(=O)Cn4cc(NC(=O)c5cnn6cccnc56)c(-c5cc(Cl)ccc5OC(F)F)n4)C[C@@H]3C2)CC1 [Example 23, ethyl 4-[[(3aS,6aR)-5-[2-[3-[5-chloro-2-(difluoromethoxy)phenyl]-4-(pyrazolo[1,5-a]pyrimidine-3-carbonylamino)pyrazol-1-yl]acetyl]-1,3,3a,4,6,6a-hexahydropyrrolo[3,4-c]pyrrol-2-yl]methyl]piperidine-1-carboxylate]",0.7 nM,0.81 nM,8.6 nM
"O=C(Nc1cn(CC(=O)N2C[C@H]3CNC[C@H]3C2)nc1-c1cc(Cl)ccc1OC(F)F)c1cnn2cccnc12 [Example 4, Cis-pyrazolo[1,5-a]pyrimidine-3-carboxylic acid {3-(5-chloro-2-difluoromethoxyphenyl)-1-[2-(hexahydropyrrolo[3,4-c]pyrrol-2-yl)-2-oxoethyl]-1H-pyrazol-4-yl}amide]",0.66 nM,0.8 nM,547 nM
"CN1CC[C@H](n2cc(NC(=O)c3c(N)nn4cccnc34)c(-c3cc(Cl)ccc3OC(F)F)n2)C1 [Example 182, 2-amino-N-[3-[5-chloro-2-(difluoromethoxy)phenyl]-1-[(3S)-1-methylpyrrolidin-3-yl]pyrazol-4-yl]pyrazolo[1,5-a]pyrimidine-3-carboxamide]",0.49 nM,0.2 nM,8.9 nM
"CN(CCO)C1CCN(C(=O)Cn2cc(NC(=O)c3c(N)nn4cccnc34)c(-c3cc(Cl)ccc3OC(F)F)n2)CC1 [Example 140, 2-amino-N-[3-[5-chloro-2-(difluoromethoxy)phenyl]-1-[2-[4-[2-hydroxyethyl(methyl)amino]-1-piperidyl]-2-oxo-ethyl]pyrazol-4-yl]pyrazolo[1,5-a]pyrimidine-3-carboxamide]",0.46 nM,0.39 nM,29.3 nM
"CN1CC[C@@H]2[C@@H](CCN2C(=O)Cn2cc(NC(=O)c3cnn4cccnc34)c(-c3cc(Cl)ccc3OC(F)F)n2)C1 [Example 24, N-[1-[2-[(3aS,7aR)-5-methyl-3,3a,4,6,7,7a-hexahydro-2H-pyrrolo[3,2-c]pyridin-1-yl]-2-oxo-ethyl]-3-[5-chloro-2-(difluoromethoxy)phenyl]pyrazol-4-yl]pyrazolo[1,5-a]pyrimidine-3-carboxamide]",0.78 nM,2.02 nM,4.9 nM
"Nc1nn2cccnc2c1C(=O)Nc1cn(C2CCN(CCCCc3ccccc3)CC2)nc1-c1cc(Cl)ccc1OC(F)F [Example 179, 2-amino-N-[3-[5-chloro-2-(difluoromethoxy)phenyl]-1-[1-(4-phenylbutyl)-4-piperidyl]pyrazol-4-yl]pyrazolo[1,5-a]pyrimidine-3-carboxamide]",3.04 nM,0.9 nM,130 nM
"O=C(Nc1cn(CC(=O)N2CC3(CCNC3)C2)nc1-c1cc(Cl)ccc1OC(F)F)c1cnn2cccnc12 [Example 220, N-[3-[5-chloro-2-(difluoromethoxy)phenyl]-1-[2-(2,7-diazaspiro[3.4]octan-2-yl)-2-oxo-ethyl]pyrazol-4-yl]pyrazolo[1,5-a]pyrimidine-3-carboxamide]",1.22 nM,2.71 nM,1170 nM
"CN(C)C(=O)CCCN1CCC(n2cc(NC(=O)c3c(N)nn4cccnc34)c(-c3cc(Cl)ccc3OC(F)F)n2)CC1 [Example 148, 2-amino-N-[3-[5-chloro-2-(difluoromethoxy)phenyl]-1-[1-[4-(dimethylamino)-4-oxo-butyl]-4-piperidyl]pyrazol-4-yl]pyrazolo[1,5-a]pyrimidine-3-carboxamide]",0.64 nM,0.1 nM,9.4 nM
"CN1CCN(CCCN2CCC(n3cc(NC(=O)c4cnn5cccnc45)c(-c4cc(Cl)ccc4OC(F)F)n3)CC2)C1=O [Example 154, N-[3-[5-chloro-2-(difluoromethoxy)phenyl]-1-[1-[3-(3-methyl-2-oxo-imidazolidin-1-yl)propyl]-4-piperidyl]pyrazol-4-yl]pyrazolo[1,5-a]pyrimidine-3-carboxamide]",1.42 nM,0.23 nM,2.7 nM
"CN(CCOc1ccccc1Br)C1CCN(C(=O)Cn2cc(NC(=O)c3cnn4cccnc34)c(-c3cc(Cl)ccc3OC(F)F)n2)CC1 [Example 105, N-[1-[2-[4-[2-(2-bromophenoxy)ethyl-methyl-amino]-1-piperidyl]-2-oxo-ethyl]-3-[5-chloro-2-(difluoromethoxy)phenyl]pyrazol-4-yl]pyrazolo[1,5-a]pyrimidine-3-carboxamide]",1.45 nM,3.17 nM,50 nM
"O=C(Nc1cn(CC(=O)N2C[C@H]3CN(CC4CCOCC4)C[C@H]3C2)nc1-c1cc(Cl)ccc1OC(F)F)c1cnn2cccnc12 [Example 26, N-[1-[2-[(3aR,6aS)-2-(tetrahydropyran-4-ylmethyl)-1,3,3a,4,6,6a-hexahydropyrrolo[3,4-c]pyrrol-5-yl]-2-oxo-ethyl]-3-[5-chloro-2-(difluoromethoxy)phenyl]pyrazol-4-yl]pyrazolo[1,5-a]pyrimidine-3-carboxamide]",0.77 nM,0.94 nM,6.2 nM
"CC(C)Oc1ccc(CN(C)C2CCN(C(=O)Cn3cc(NC(=O)c4cnn5cccnc45)c(-c4cc(Cl)ccc4OC(F)F)n3)CC2)cc1 [Example 125, N-[3-[5-chloro-2-(difluoromethoxy)phenyl]-1-[2-[4-[(4-isopropoxyphenyl)methyl-methyl-amino]-1-piperidyl]-2-oxo-ethyl]pyrazol-4-yl]pyrazolo[1,5-a]pyrimidine-3-carboxamide]",0.61 nM,2.2 nM,11.7 nM
"CN(CCC1CCCCC1)C1CCN(C(=O)Cn2cc(NC(=O)c3cnn4cccnc34)c(-c3cc(Cl)ccc3OC(F)F)n2)CC1 [Example 101, N-[3-[5-chloro-2-(difluoromethoxy)phenyl]-1-[2-[4-[2-cyclohexyl-ethyl(methyl)amino]-1-piperidyl]-2-oxo-ethyl]pyrazol-4-yl]pyrazolo[1,5-a]pyrimidine-3-carboxamide]",0.67 nM,1.77 nM,16.5 nM
"CN(Cc1ccc(F)c(Br)c1)C1CCN(C(=O)Cn2cc(NC(=O)c3cnn4cccnc34)c(-c3cc(Cl)ccc3OC(F)F)n2)CC1 [Example 131, N-[1-[2-[4-[(3-bromo-4-fluoro-phenyl)methyl-methyl-amino]-1-piperidyl]-2-oxo-ethyl]-3-[5-chloro-2-(difluoromethoxy)phenyl]pyrazol-4-yl]pyrazolo[1,5-a]pyrimidine-3-carboxamide]",1.07 nM,2.68 nM,23.7 nM
"CCCCN(CC(F)(F)F)C1CCN(C(=O)Cn2cc(NC(=O)c3cnn4cccnc34)c(-c3cc(Cl)ccc3OC(F)F)n2)CC1 [Example 115, N-[1-[2-[4-[butyl(2,2,2-trifluoroethyl)amino]-1-piperidyl]-2-oxo-ethyl]-3-[5-chloro-2-(difluoromethoxy)phenyl]pyrazol-4-yl]pyrazolo[1,5-a]pyrimidine-3-carboxamide]",1.28 nM,2.48 nM,57.7 nM
"CN1CC[C@@H]2CN(C(=O)Cn3cc(NC(=O)c4cnn5cccnc45)c(-c4cc(Cl)ccc4OC(F)F)n3)C[C@@H]2C1 [Example 49, N-[1-[2-[(3aS,7aS)-5-methyl-3,3a,4,6,7,7a-hexahydro-1H-pyrrolo[3,4-c]pyridin-2-yl]-2-oxo-ethyl]-3-[5-chloro-2-(difluoromethoxy)phenyl]pyrazol-4-yl]pyrazolo[1,5-a]pyrimidine-3-carboxamide]",0.5 nM,0.96 nM,11.3 nM
"CN(C)CC1(c2ccccc2)CCN(C(=O)Cn2cc(NC(=O)c3cnn4cccnc34)c(-c3cc(Cl)ccc3OC(F)F)n2)CC1 [Example 80, N-[3-[5-chloro-2-(difluoromethoxy)phenyl]-1-[2-[4-[(dimethylamino)methyl]-4-phenyl-1-piperidyl]-2-oxo-ethyl]pyrazol-4-yl]pyrazolo[1,5-a]pyrimidine-3-carboxamide]",0.43 nM,0.87 nM,4.9 nM
